Data reported in US20190233884A1 (University of Southern California, priority 2016, published 2019).

Tested on: patients with refractory metastatic colorectal cancer (mCRC)
Assay: PFS, OS and disease control in the testing (validation) cohort of refractory mCRC patients receiving TAS-102 (n=129, Italy), by baseline characteristics, SNP genotype and toxicity
Assay type: in vivo, human
Settings: validation cohort
Procedure: All patients underwent the treatment in salvage-line setting. […]
(§1) Genomic DNA was extracted from peripheral whole blood in patients of all cohorts using the QIAmp Kit (Qiagen, Valencia, Calif., USA) according to the manufacturer's protocol (www.qiagen.com). The candidate SNPs were genotyped using PCR-based direct DNA sequence analysis by ABI 3100A Capillary Genetic Analyzer and Sequencing Scanner v1.0 (Applied Biosystems). Amplification of extracted DNA was carried out using both forward and reverse primers for each gene polymorphism as shown in Table 1. […] The investigators analyzing SNPs were blinded to the clinical data of the study patients.
The primary endpoint in this study was progression-free survival (PFS), and the secondary endpoints were overall survival (OS) and disease control rate (DCR). PFS was calculated from the date of starting treatment to the first observation of disease progression or death from any cause. If a patient had no disease progression or death, PFS was censored at the date of last follow up. OS was calculated from the date of starting treatment until the date of death from any cause or the date of the last follow-up, at which point OS was censored. The disease control rate (DCR) was defined as the proportion of patients who achieved a stable disease (SD) or […] according to RECISTv1.1. Chi-square test was used to examine the difference in baseline patient characteristics among the three cohorts. Allelic distribution of all SNPs by ethnicity for deviation from Hardy-Weinberg equilibrium and the allelic frequencies of SNPs were tested using the Chi-square tests with one degree of freedom. The associations between candidate SNPs and disease control, and toxicities were examined using contingency tables and Fisher's exact test. The associations of SNPs with PFS and OS were analysed using Kaplan-Meier curves and the log-rank test. Because the true mode of inheritance of candidate SNPs was not established yet, a codominant or dominant genetic model if appropriate was considered.
All patients underwent the treatment in salvage-line setting. […] In all patients, adverse events were graded according to the Common Terminology Criteria for Adverse Events, version 4.0. […]
as §1, with “tested” for “genotyped”, “Biosystems).” for “Biosystems). Amplification of extracted DNA was carried out using both forward and reverse primers for each gene polymorphism as shown in Table 1.”, “data.” for “data of the study patients.”
The primary endpoint in this study was progression-free survival (PFS), and the secondary endpoints were overall survival (OS) and disease control rate (DCR).

[1] = ATM rs609429 C/G vs C/C (Ref.), multivariable
[2] = ATM rs609429 C/G vs C/C (Ref.), univariate
[3] = ATM rs609429 G/G vs C/C (Ref.), multivariable
[4] = ATM rs609429 G/G vs C/C (Ref.), univariate
[5] = Adjuvant Oxa No vs Yes (Ref.), univariate
[6] = Adjuvant history No vs Yes (Ref.), univariate
[7] = Age group ≥61 vs <61 (Ref.), univariate
[8] = BRAF status Mutant vs Wild type (Ref.), univariate
[9] = CHEK2 rs2267130 Any C vs T/T (Ref.), multivariable
[10] = CHEK2 rs2267130 Any C vs T/T (Ref.), univariate
[11] = CHEK2 rs2267130 C/C vs T/T (Ref.), multivariable
[12] = CHEK2 rs2267130 C/C vs T/T (Ref.), univariate
[13] = CHEK2 rs2267130 T/C vs T/T (Ref.), multivariable
[14] = CHEK2 rs2267130 T/C vs T/T (Ref.), univariate
[15] = Grading 3 vs 1-2 (Ref.), univariate
[16] = LN metastasis No vs Yes (Ref.), univariate
[17] = Liver metastasis No vs Yes (Ref.), univariate
[18] = Lung metastasis No vs Yes (Ref.), univariate
[19] = Mucinous histology No vs Yes (Ref.), univariate
[20] = Number of metastases >2 vs ≤2 (Ref.), univariate

Trifluridine/tipiracil [TAS-102]
Disease Control CR/PR/SD, patients n (%) (ATM rs609429 C/G): 20 (32%)
Median PFS (95% CI) (ATM rs609429 C/G): 2.0 (1.9, 2.3) months
PD, patients n (%) (ATM rs609429 C/G): 43 (68%)
HR OS (95% CI) [1]: 0.71 (0.39, 1.30)
HR PFS (95% CI) [1]: 0.77 (0.50, 1.20)
HR OS (95% CI) [2]: 0.71 (0.40, 1.26)
HR PFS (95% CI) [2]: 0.76 (0.50, 1.16)
Disease Control CR/PR/SD, patients n (%) (ATM rs609429 G/G): 6 (40%)
Median OS (95% CI) (ATM rs609429 G/G): 5.8 (2.7, 7.1+) months
Median PFS (95% CI) (ATM rs609429 G/G): 2.0 (1.2, 6.1) months
PD, patients n (%) (ATM rs609429 G/G): 9 (60%)
HR OS (95% CI) [3]: 1.43 (0.56, 3.65)
HR PFS (95% CI) [3]: 1.32 (0.67, 2.59)
HR OS (95% CI) [4]: 0.82 (0.34, 2.00)
HR PFS (95% CI) [4]: 0.85 (0.45, 1.63)
Median OS (Adjuvant Oxa No): 5.8 months
Median PFS (Adjuvant Oxa No): 1.9 months
HR OS [5]: 1.17
HR PFS [5]: 1.06
Median OS (Adjuvant Oxa Yes): 8.5+ months
Median PFS (Adjuvant Oxa Yes): 2.0 months
Median OS (Adjuvant history No): 5.5 months
Median PFS (Adjuvant history No): 1.9 months
HR OS [6]: 1.23
HR PFS [6]: 1.25
Median OS (Adjuvant history Yes): 8.5+ months
Median PFS (Adjuvant history Yes): 2.0 months
Median OS (Age group <61): 4.4 months
Median PFS (Age group <61): 1.9 months
Median OS (Age group ≥61): 9.0 months
Median PFS (Age group ≥61): 2.0 months
HR OS [7]: 0.56
HR PFS [7]: 0.61
Median OS (BRAF status Mutant): 3.3 months
Median PFS (BRAF status Mutant): 1.8 months
HR OS [8]: 2.38
HR PFS [8]: 1.40
Median OS (BRAF status Wild type): 5.8 months
Median PFS (BRAF status Wild type): 2.0 months
Disease Control CR/PR/SD, patients n (%) (CHEK2 rs2267130 Any C): 29 (31%)
Median OS (95% CI) (CHEK2 rs2267130 Any C): 5.5 (4.4, 8.7+) months
Median PFS (95% CI) (CHEK2 rs2267130 Any C): 2.0 (1.8, 2.3) months
PD, patients n (%) (CHEK2 rs2267130 Any C): 65 (69%)
HR OS (95% CI) [9]: 0.70 (0.38, 1.30)
HR PFS (95% CI) [9]: 1.05 (0.66, 1.67)
HR OS (95% CI) [10]: 0.94 (0.52, 1.69)
HR PFS (95% CI) [10]: 1.10 (0.71, 1.72)
Disease Control CR/PR/SD, patients n (%) (CHEK2 rs2267130 C/C): 9 (29%)
Median OS (95% CI) (CHEK2 rs2267130 C/C): 5.4 (3.9, 7.1+) months
Median PFS (95% CI) (CHEK2 rs2267130 C/C): 2.0 (1.8, 2.4) months
PD, patients n (%) (CHEK2 rs2267130 C/C): 22 (71%)
HR OS (95% CI) [11]: 0.48 (0.21, 1.09)
HR PFS (95% CI) [11]: 0.87 (0.49, 1.54)
HR OS (95% CI) [12]: 0.95 (0.45, 2.00)
HR PFS (95% CI) [12]: 1.08 (0.62, 1.86)
Disease Control CR/PR/SD, patients n (%) (CHEK2 rs2267130 T/C): 20 (32%)
Median PFS (95% CI) (CHEK2 rs2267130 T/C): 2.0 (1.7, 2.3) months
PD, patients n (%) (CHEK2 rs2267130 T/C): 43 (68%)
HR OS (95% CI) [13]: 0.83 (0.44, 1.58)
HR PFS (95% CI) [13]: 1.17 (0.72, 1.91)
HR OS (95% CI) [14]: 0.93 (0.50, 1.75)
HR PFS (95% CI) [14]: 1.12 (0.69, 1.79)
Disease Control CR/PR/SD, patients n (%) (CHEK2 rs2267130 T/T): 8 (24%)
Median OS (95% CI) (CHEK2 rs2267130 T/T): 5.8 (3.7, 9.0+) months
Median PFS (95% CI) (CHEK2 rs2267130 T/T): 1.9 (1.9, 2.0) months
PD, patients n (%) (CHEK2 rs2267130 T/T): 26 (76%)
Median OS (Grading 1-2): 9.0 months
Median PFS (Grading 1-2): 2.1 months
Median OS (Grading 3): 5.3 months
Median PFS (Grading 3): 1.9 months
HR OS [15]: 1.38
HR PFS [15]: 1.15
Median OS (LN metastasis No): 5.4 months
Median PFS (LN metastasis No): 2.0 months
HR OS [16]: 1.24
HR PFS [16]: 0.99
Median OS (LN metastasis Yes): 8.8+ months
Median PFS (LN metastasis Yes): 2.0 months
Median OS (Liver metastasis No): 8.7+ months
Median PFS (Liver metastasis No): 2.4 months
HR OS [17]: 0.69
HR PFS [17]: 0.52
Median OS (Liver metastasis Yes): 5.4 months
Median PFS (Liver metastasis Yes): 1.9 months
Median OS (Lung metastasis No): 4.1 months
Median PFS (Lung metastasis No): 1.9 months
HR OS [18]: 1.46
HR PFS [18]: 1.62
Median OS (Lung metastasis Yes): 8.8+ months
Median PFS (Lung metastasis Yes): 2.1 months
Median OS (Mucinous histology No): 9.0 months
Median PFS (Mucinous histology No): 2.0 months
HR OS [19]: 0.72
HR PFS [19]: 0.97
Median OS (Mucinous histology Yes): 5.5 months
Median PFS (Mucinous histology Yes): 1.9 months
Median OS (Number of metastases >2): 8.8+ months
Median PFS (Number of metastases >2): 2.0 months
HR OS [20]: 0.83
HR PFS [20]: 1.18
Median OS (Number of metastases ≤2): 5.5 months
Median PFS (Number of metastases ≤2): 2.0 months
Median OS (Performance status ECOG 0): 9.0 months
Median PFS (Performance status ECOG 0): 2.0 months
Median OS (Performance status ECOG 1+): 4.1 months
Median PFS (Performance status ECOG 1+): 1.9 months
